Reference: patent EP0571593B1, “NEW NON IONIC IODIZED AGENTS FOR X-RAY CONTRASTING, METHOD FOR PREPARING THEM AND GALENICAL COMPOSITIONS CONTAINING THEM” (CENTRO INVESTIGACION JUSTESA IMAGEN S.A., priority 1991, dated 1993)

Experiments:
Sprague-Dawley rats = test: Intravenous toxicity, lethal dose for 50% of the animals; type: in vivo; conditions: i.v. via the caudal vein at 2.2ml/min, mortality during seven days
[1] = Osmolality of aqueous solutions; type: physicochemical
[2] = Viscosity of aqueous solutions; type: physicochemical
Iodine content = type: physicochemical; conditions: for Iodine Content (%): comparison table with IOTROLAN
rat = test: ED50 after intracisternal (i.cis.) administration; type: in vivo

Compound	LD50, rat i.v. (g I/kg) (Sprague-Dawley rats)	Osmolality mosm/kg at 300mg I/ml [1] [mosm/kg]	Osmolality (mOsm/kg at 300 mg I/ml) 37°C [1] [mOsm/kg]	Viscosity (mPa.S at 300 mg I/ml) 37°C [2]	Viscosity mPa s (30°C) at 300mg I/ml [2]	% Iodine (Iodine content)	Iodine Content (%) (Iodine content)	ED50, rat i.cis. (mg I/kg) (rat)
COCC(=O)Nc1c(I)c(C(=O)NCC(O)CO)c(I)c(C(=O)N(C)CC(=O)N(C)c2c(I)c(C(=O)NC(CO)C(O)CO)c(I)c(C(=O)NC(CO)C(O)CO)c2I)c1I (centres unmarked) [EXAMPLE 9, N,N'-bis-(1-hydroxymethyl-2,3-dihydroxypropyl)-5-{3-[N-(2,3-dihydroxypropyl)carbamoyl]-5-methoxyacetamido-2,4,6-triiodobenzoyl-N-methylaminoacetyl-N-methylamino}-2,4,6-tri-iodoisophthalamide]	20-25 g I/kg	226	226	8,2 mPa.S	8,2 mPa s	49,6%	49,6%	350
CN(CC(=O)N(C)c1c(I)c(C(=O)NCC(O)CO)c(I)c(C(=O)NCC(O)CO)c1I)C(=O)c1c(I)c(NC(=O)CO)c(I)c(C(=O)NCC(O)CO)c1I (centres unmarked) [EXAMPLE 11, N,N'-bis-(2,3-dihydroxypropyl)-5-{3-[N-(2,3-dihydroxypropyl)carbamoyl]-5-hydroxyacetamido-2,4,6-triiodobenzoyl-N-methylaminoacetyl-N-methylamino}-2,4,6-triiodo isophthalamide]	23 g I/kg	152	152	7,0 mPa.S	6,9 mPa s	52%	52,1%	500
CC(=O)Nc1c(I)c(C(=O)NCC(O)CO)c(I)c(C(=O)N(CC(=O)Nc2c(I)c(C(=O)NCC(O)CO)c(I)c(C(=O)NCC(O)CO)c2I)CC(O)CO)c1I (centres unmarked) [EXAMPLE 36, N,N-bis-(2,3-dihydroxypropyl)-5-{3-[N-(2,3-dihydroxypropyl)carbamoyl]-5-acetamido-2,4,6-triiodobenzoyl-N-(2,3-dihidroxypropyl)aminoacetamido}-2,4,6-triiodoisophthalamide]	25-27 g I/kg	125	125	8,3-8,8 mPa.S	8,8 mPa s	51%	51,0%	550
CN(C(=O)CC(=O)N(C)c1c(I)c(C(=O)NC(CO)C(O)CO)c(I)c(C(=O)NC(CO)C(O)CO)c1I)c1c(I)c(C(=O)NC(CO)C(O)CO)c(I)c(C(=O)NC(CO)C(O)CO)c1I (stereo not drawn) [IOTROLAN, N,N'-dimethyl-N,N'-bis[3,5-(l-hydroxymethyl-2,3-dihydroxy-propyl-carbamoyl) -2,4,6-triiodo-phenyl]-diamide of malonic acid, reference compound]	25-28 g I/kg	–	320	8,1-9,2 mPa.S	–	–	47%	315
